Results as given in patent US20200095296A1, “USE OF PEPTIDES AS BIOMARKERS IN THE DIAGNOSIS, CONFIRMATION AND TREATMENT OF A NEUROLOGICAL DISORDER AND TCR AND/OR HLA IMMUNOPROFILING IN NEURODEGENERATIVE DISEASE” (THE TRUSTEES OF COLUMBIA UNIVERSITY IN THE CITY OF NEW YORK, priority 2017, published 2020).
Where a chain is given by its changes, count along the chain named. Read-outs that look alike come from different tables or passages of the source.

Assays:
DPB1*04:01 = biological target: T1, DPB1*04:01 (Homo sapiens, UniProt P04440); assay: competition binding assay, purified HLA DPB1*04:01
T1 sequence (P04440 30-258): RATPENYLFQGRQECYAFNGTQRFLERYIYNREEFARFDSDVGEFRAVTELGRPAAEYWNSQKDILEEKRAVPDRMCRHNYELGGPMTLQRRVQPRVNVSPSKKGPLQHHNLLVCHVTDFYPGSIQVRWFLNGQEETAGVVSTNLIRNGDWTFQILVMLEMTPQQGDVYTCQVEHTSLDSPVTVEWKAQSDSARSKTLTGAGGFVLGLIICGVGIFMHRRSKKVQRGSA
T1 sequence (P20036 29-260 partner): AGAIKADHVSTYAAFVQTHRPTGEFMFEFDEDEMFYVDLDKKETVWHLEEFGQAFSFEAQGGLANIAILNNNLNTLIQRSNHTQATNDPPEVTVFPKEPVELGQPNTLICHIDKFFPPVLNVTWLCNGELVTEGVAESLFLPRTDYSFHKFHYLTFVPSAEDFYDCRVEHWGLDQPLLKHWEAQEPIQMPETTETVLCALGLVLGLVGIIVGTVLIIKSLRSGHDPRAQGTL

DPB1*03:01 = biological target: T2, DPB1*03:01 (Homo sapiens, UniProt P04440+P20036, A65V/A84D/A85E/E86D/F38Y/G113D/G114E/G40L/I94L/L37V/M105V/M116V/P115A/R125K/T199I); assay: competition binding assay, purified HLA DPB1*03:01; details: purified HLA, radiolabeled peptide competition; nM; read-out: binding to DPB1*03:01 (IC50)
T2 sequence (P20036 29-260): T1 sequence (P20036 29-260 partner)
T2 sequence (P04440 30-258 L37V/F38Y/G40L/A65V/A84D/A85E/E86D/I94L/M105V/G113D/G114E/P115A/M116V/R125K/T199I): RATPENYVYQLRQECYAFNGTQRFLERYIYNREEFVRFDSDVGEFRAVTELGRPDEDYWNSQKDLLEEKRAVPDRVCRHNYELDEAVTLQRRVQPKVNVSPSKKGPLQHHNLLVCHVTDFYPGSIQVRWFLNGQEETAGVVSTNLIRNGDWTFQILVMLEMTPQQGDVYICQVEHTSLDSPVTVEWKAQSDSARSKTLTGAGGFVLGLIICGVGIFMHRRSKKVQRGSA

DPB1*05:01 = biological target: T3, DPB1*05:01 (Homo sapiens, UniProt P04440+P20036, A65V/A84E/F191V/F64L/G113D/G114E/K142R/L158P/M116V/M62Q/P115A/Q81R/R125K/T114A/T199I/T259P/V234M); assay: competition binding assay, purified HLA DPB1*05:01
T3 sequence (P20036 29-260 M62Q/Q81R/T114A/K142R/L158P/F191V/T259P): T1 sequence (P20036 29-260 partner) with M34Q, Q53R, T86A, K114R, L130P, F163V, T231P
T3 sequence (P04440 30-258 F64L/A65V/A84E/G113D/G114E/P115A/M116V/R125K/T199I/V234M): T1 sequence (P04440 30-258) with F35L, A36V, A55E, G84D, G85E, P86A, M87V, R96K, T170I, V205M

DPB1*02:01 = biological target: T4, DPB1*02:01 (Homo sapiens, UniProt P04440+P20036, A65V/A84D/A85E/K98E); assay: competition binding assay, purified HLA DPB1*02:01
T4 sequence (P20036 29-260): T1 sequence (P20036 29-260 partner)
T4 sequence (P04440 30-258 A65V/A84D/A85E/K98E): T1 sequence (P04440 30-258) with A36V, A55D, A56E, K69E

DPB1*04:02 = biological target: T5, DPB1*04:02 (Homo sapiens, UniProt P04440+P20036, A65V/A84D/A85E/L207M); assay: competition binding assay, purified HLA DPB1*04:02
T5 sequence (P04440 30-258 A65V/A84D/A85E/L207M): T1 sequence (P04440 30-258) with A36V, A55D, A56E, L178M
T5 sequence (P20036 29-260): T1 sequence (P20036 29-260 partner)

DRB5*01:01 = DRB5*01:01 (Homo sapiens, UniProt P01903+Q30154); assay: competition binding assay, purified HLA DRB5*01:01; details: purified HLA, radiolabeled peptide competition; nM; read-out: binding to DRB5*01:01 (IC50)
DRB4*01:01 = DRB4*01:01 (Homo sapiens, UniProt P01903+P13762, G164S); assay: competition binding assay, purified HLA DRB4*01:01; details: purified HLA, radiolabeled peptide competition; nM; read-out: binding to DRB4*01:01 (IC50)
PBMC = assay: IFNg/IL-5 dual ELISPOT after 14 day in vitro stimulation of PBMC with Tau peptides; format: cell-based, human; details: for % of total response / Average SFC per responder / Frequency of response / Total SFC per epitope: across all cohorts
Description: It was investigated whether T cell responses against Tau were detectable in the PD and healthy control (HC) donors. To this end, a panel of overlapping peptides spanning through the entire sequence of the Tau protein was synthesized. Since it is known that the Tau protein is post-translationally modified (mainly by phosphorylation), in several instances phosphorylated peptides were also synthesized. In all, 55 non-modified 16-mers overlapping by 8 and 14 modified 16-mers were synthesized.
PD: n=16, peptides tested 14-16 times; HC above 50 years old denominated as age-matched: n=11 (9-11 times) and HC below 35 years old (HC Young): n=13 (10-13 times).
These peptides were tested utilizing the following assay strategy. Briefly, PBMC from each donor were stimulated in vitro for 14 days as described (Hinz, D., 2015) with pools of 10 to 16 peptides each. After 14 days, the T cell cultures were assayed with IFNg/IL-5 dual ELISPOT assays […]. Positive pools were deconvoluted at day 17 to identify the specific individual epitopes recognized.

[1] = purified HLA, radiolabeled peptide competition, nM, read-out: binding to DPB1*04:01 (IC50)
[2] = purified HLA, radiolabeled peptide competition, nM, read-out: binding to DPB1*05:01 (IC50)
[3] = purified HLA, radiolabeled peptide competition, nM, read-out: binding to DPB1*02:01 (IC50)
[4] = purified HLA, radiolabeled peptide competition, nM, read-out: binding to DPB1*04:02 (IC50)
[5] = all three cohorts (PD, HC > 50, HC < 35)
[6] = healthy controls < 35 years old
[7] = healthy controls > 50 years old

Row | Compound | IC50 (DPB1*04:01; [1]) [nM] | IC50 (DPB1*03:01) [nM] | IC50 (DPB1*05:01; [2]) [nM] | IC50 (DPB1*02:01; [3]) [nM] | IC50 (DPB1*04:02; [4]) [nM] | PD/HC > 50 Ratio of % Responders (PBMC) | PD/HC > 50 Ratio of Response (PBMC) | HC > 50 % of Total Responders (PBMC) [%] | HC > 50 Total SFC (PBMC; HC > 50, dominant epitopes) [SFC] | PD % of Total Responders (PBMC; PD donors) [%] | PD Total SFC (PBMC; PD donors, dominant epitopes) [SFC] | % of total response (PBMC) [%] | Average SFC per responder (PBMC) [SFC] | Frequency of response (PBMC) | Total SFC per epitope (PBMC) [SFC] | further results
1 | CSCC[C@H](NC(=O)[C@@H](N)CCC(=O)O)C(=O)N1CCC[C@H]1C(=O)N[C@@H](CO)C(=O)N[C@@H](CCC(=O)O)C(=O)N[C@@H](CCC(=O)O)C(=O)NCC(=O)N[C@@H](Cc1ccc(O)cc1)C(=O)N[C@@H](CCC(N)=O)C(=O)N[C@@H](CC(=O)O)C(=O)N[C@@H](Cc1ccc(O)cc1)C(=O)N[C@@H](CCC(=O)O)C(=O)N1CCC[C@H]1C(=O)N[C@@H](CCC(=O)O)C(=O)N[C@@H](C)C(=O)O | > 10000 | > 10000 | > 10000 | > 10000 | > 10000 |  |  |  |  |  |  |  |  |  |  | 
2 | CC(C)C[C@H](NC(=O)[C@@H](NC(=O)CNC(=O)[C@H](CCC(=O)O)NC(=O)[C@H](CCCCN)NC(=O)[C@@H](NC(=O)[C@@H](N)CCCCN)[C@@H](C)O)C(C)C)C(=O)N[C@@H](Cc1ccc(OP(=O)(O)O)cc1)C(=O)N[C@H](C(=O)NCC(=O)N[C@@H](CO)C(=O)N[C@@H](CCCCN)C(=O)N[C@H](C(=O)N[C@@H](CCCCN)C(=O)N[C@@H](CCC(=O)O)C(=O)O)[C@@H](C)O)C(C)C |  |  |  |  |  |  |  |  |  |  |  |  |  |  |  | IC50 (DPB1*04:01): 937 nM; IC50 (DPB1*05:01): 777 nM; IC50 (DPB1*02:01): 620 nM; IC50 (DPB1*04:02): 1600 nM
3 | CSCC[C@H](NC(=O)[C@H](CCC(=O)O)NC(=O)[C@H](Cc1ccc(O)cc1)NC(=O)[C@H](C)NC(=O)[C@H](CCC(=O)O)NC(=O)[C@H](CC(N)=O)NC(=O)[C@H](CC(=O)O)NC(=O)[C@@H]1CCCN1C(=O)[C@H](CC(=O)O)NC(=O)[C@@H](NC(=O)[C@@H]1CCCN1C(=O)[C@@H](N)CCSC)C(C)C)C(=O)N1CCC[C@H]1C(=O)N[C@@H](CO)C(=O)N[C@@H](CCC(=O)O)C(=O)O | > 10000 | > 10000 | > 10000 | > 10000 | > 10000 |  |  |  |  |  |  |  |  |  |  | 
4 | CSCC[C@H](NC(=O)[C@H](CCC(=O)O)NC(=O)[C@H](Cc1ccc(O)cc1)NC(=O)[C@H](C)NC(=O)[C@H](CCC(=O)O)NC(=O)[C@H](CC(N)=O)NC(=O)[C@H](CC(=O)O)NC(=O)[C@@H]1CCCN1C(=O)[C@H](CC(=O)O)NC(=O)[C@@H](NC(=O)[C@@H]1CCCN1C(=O)[C@@H](N)CCSC)C(C)C)C(=O)N1CCC[C@H]1C(=O)N[C@@H](COP(=O)(O)O)C(=O)N[C@@H](CCC(=O)O)C(=O)O | > 10000 | > 10000 | > 10000 | > 10000 | > 10000 |  |  |  |  |  |  |  |  |  |  | IC50 (DRB5*01:01): > 10000 nM; IC50 (DRB4*01:01): > 10000 nM
5 | TPPTREPKKVAVVRXP |  |  |  |  |  |  |  |  |  |  |  |  |  |  |  | PD Total Responders (PBMC; PD donors): 4; PD Total SFC (PBMC; PD donors): 1813 SFC; Total Responders (PBMC; [5]): 7; Total SFC (PBMC; [5]): 2210 SFC; HC < 35 Total Responders (PBMC; [6]): 3; HC < 35 Total SFC (PBMC; [6]): 397 SFC; HC > 50 Total Responders (PBMC; [7]): 0; HC > 50 Total SFC (PBMC; [7]): 0 SFC
6 | TRIPAKTPPAPKTPPS (listed as Homo sapiens) [Tau 16-mer, start 169] |  |  |  |  |  | 1.0 | 8.1 | 33.3 | 180 | 33.3 | 145 | 1.1 | 1299 | 5.7 | 3897 | 
7 | VDLSKVTSKCGSLGNI (listed as Homo sapiens) [Tau 16-mer, start 313] |  |  |  |  |  | 2.0 | 7.5 | 28.6 | 897 | 57.1 | 671 | 2.8 | 1409 | 13.2 | 9861 | 
8 | VYKSPVVSGDTSPRHL (listed as Homo sapiens) [Tau 16-mer, start 393] |  |  |  |  |  | 1.0 | 2.6 | 42.9 | 3397 | 42.9 | 8951 | 3.8 | 1915 | 13.2 | 13408 | 
